According to publication PMC11683865, “CACHE Challenge #1: Docking with GNINA Is All You Need” (Journal of Chemical Information and Modeling, 2024):
Read-outs that look alike come from different tables or passages of the source.

Target: T1, Leucine-rich repeat serine/threonine-protein kinase 2 (LRRK2), WD-40 repeat (WDR) domain (Homo sapiens, UniProt Q5S007)
T1 construct: WD-40 repeat (WDR) domain
T1 sequence (Q5S007 2142-2527): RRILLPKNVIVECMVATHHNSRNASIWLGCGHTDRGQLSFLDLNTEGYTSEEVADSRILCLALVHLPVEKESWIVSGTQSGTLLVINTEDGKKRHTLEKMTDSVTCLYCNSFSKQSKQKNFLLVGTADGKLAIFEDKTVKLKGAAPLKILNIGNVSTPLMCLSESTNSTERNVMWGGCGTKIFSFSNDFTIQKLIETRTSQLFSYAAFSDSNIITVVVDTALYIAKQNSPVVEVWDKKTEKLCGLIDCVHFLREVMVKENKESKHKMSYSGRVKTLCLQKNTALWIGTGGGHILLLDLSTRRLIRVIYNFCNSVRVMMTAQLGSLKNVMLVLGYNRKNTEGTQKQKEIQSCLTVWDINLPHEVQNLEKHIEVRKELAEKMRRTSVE
Assay: SPR
Type: binding

| Compound | Kd (read-out: Kd) | Kd |
| --- | --- | --- |
| O=C(NCc1ccc[nH]c1=O)N1CCC(CCc2ccc(F)cc2F)CC1 [CACHE_1181_50] | > 100 µM | – |
| O=C(CN1CCC2(C1)C(=O)Nc1ccccc12)Nc1ccc2c(c1)CCC2 (centres unmarked) [CACHE_1181_33] | – | > 100 µM |
